Measurements published in patent US12673038B2, “Antimycotic methoxyflavone and fluconazole combination for inhibiting cryptococcus” (Karl-Franzens-Universität Graz, priority 2019, dated 2026).

Test system: C. albicans
Test: In vitro antifungal activity of flavone in combination with azoles, growth via OD490
Assay type: cell-based, Candida albicans
Conditions: OD490, flavone plus azole vs each alone
In the case of `COc1ccccc1-c1cc(=O)c2ccccc2o1` [2′-MF, 2′-methoxyflavone], the “enhancement of the antifungal activity of azoles in the presence of the flavone” value (shortened to “enhancement”) is reported as “enhancement of the antifungal activity”. For `COc1cc(OC)c2c(=O)cc(-c3ccc(OC)c(OC)c3)oc2c1` [3′,4′,5,7-TMF, 3′,4′,5,7-tetrametoxyflavone], the “enhancement” value was “enhancement of the antifungal activity”. For `COc1cc(-c2cc(=O)c3c(OC)c(OC)c(OC)cc3o2)cc(OC)c1OC` [3′,4′,5′,5,6,7-HMF, 3′,4′,5′,5,6,7-hexymethoxyflaovne], the “enhancement” value was “enhancement of the antifungal activity”. With `O=c1cc(-c2ccccc2)oc2ccc3ccccc3c12` [5,6-BF, 5,6-benzoflavone] the “enhancement” value was “enhancement of the antifungal activity”. In the case of `O=c1cc(-c2ccccc2)oc2c1ccc1ccccc12` [7,8-BF, 7,8-benzoflavone], the “enhancement” value is reported as “enhancement of the antifungal activity”. In the case of `COc1ccc2c(=O)cc(-c3ccccc3)oc2c1` [7-MF, 7-methoxyflavone], the “enhancement” value is reported as “enhancement of the antifungal activity”.

Test system: fungi including Aspergillus and Fusarium species
Test: not given
Conditions: Weidenbörner et al., Mycol. Res. 101 (1997); cited from earlier work
For `O=c1cc(-c2ccccc2)oc2ccccc12` [flavone], the antifungal effect is given as “displays an antifungal effect”.
